The test addresses Ephrin type-B receptor 4 (Homo sapiens) (UniProt P54760). As to the kind of experiment: inhibition of human ephrin receptor B4 activity – biochemical, Z'-LYTE, FRET, protease-coupled, direct format, dose response (AID 1671276). Conditions: EPHB4 kinase, Z'-LYTE FRET peptide phosphorylation.

Chain of Ephrin type-B receptor 4 (Homo sapiens) (P54760 whole entry, looked up): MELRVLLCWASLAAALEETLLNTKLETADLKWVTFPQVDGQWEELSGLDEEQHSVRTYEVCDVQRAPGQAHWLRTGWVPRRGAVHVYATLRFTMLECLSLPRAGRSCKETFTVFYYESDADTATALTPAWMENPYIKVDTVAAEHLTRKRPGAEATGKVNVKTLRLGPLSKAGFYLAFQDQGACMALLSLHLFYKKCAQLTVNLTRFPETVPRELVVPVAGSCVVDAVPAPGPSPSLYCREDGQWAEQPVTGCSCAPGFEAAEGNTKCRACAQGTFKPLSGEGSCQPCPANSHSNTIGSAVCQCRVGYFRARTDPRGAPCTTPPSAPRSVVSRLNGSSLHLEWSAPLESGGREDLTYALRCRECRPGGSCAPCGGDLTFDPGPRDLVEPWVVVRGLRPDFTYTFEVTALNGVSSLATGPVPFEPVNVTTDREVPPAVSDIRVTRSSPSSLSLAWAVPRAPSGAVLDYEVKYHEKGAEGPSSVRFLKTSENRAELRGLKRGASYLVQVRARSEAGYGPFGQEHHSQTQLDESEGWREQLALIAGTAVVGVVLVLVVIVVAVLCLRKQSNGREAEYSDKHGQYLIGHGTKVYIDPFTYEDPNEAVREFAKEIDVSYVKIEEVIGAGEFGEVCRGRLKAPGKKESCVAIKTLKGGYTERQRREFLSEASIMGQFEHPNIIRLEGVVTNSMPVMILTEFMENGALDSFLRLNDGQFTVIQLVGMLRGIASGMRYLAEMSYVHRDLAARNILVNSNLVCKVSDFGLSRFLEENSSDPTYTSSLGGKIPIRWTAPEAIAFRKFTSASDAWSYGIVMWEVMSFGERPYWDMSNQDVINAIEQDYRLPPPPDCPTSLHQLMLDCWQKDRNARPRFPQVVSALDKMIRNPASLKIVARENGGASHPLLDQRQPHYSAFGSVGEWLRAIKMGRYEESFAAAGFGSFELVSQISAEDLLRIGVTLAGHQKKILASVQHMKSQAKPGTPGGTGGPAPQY

Turning to `COc1cc2ncnc(Nc3cccc(Cl)c3)c2cc1OC`, the IC50 – broadly, the midpoint of a concentration-inhibition curve – is 1590 nM.

These data come from PubChem BioAssay AID1671276.
